Measured values from patent EP0044212B1, “Herbicidal o-alkylsulfonyloxy- and o-alkylsulfonylamino-benzenesulfonamides” (E.I. DU PONT DE NEMOURS AND COMPANY, priority 1980, dated 1982).

Key:
Nutsedge = experiment: Test F over-the-top soil/foliage treatment; assay type: in vivo, Cyperus rotundus; set-up: scale not given here; conditions: soil/foliage spray, ~14 days
Description: (§1) The test chemicals, dissolved in a non-phytotoxic solvent, were applied in an overall spray to the foliage and surrounding […] of selected plant species. […] Approximately fourteen days after treatment, all species were visually compared to untreated controls and rated for response to treatment.
(§2) All plant species were seeded in Woodstown sandy loam soil and grown in a greenhouse. The following species were grown in soil contained in plastic pots (25 cm diameter by 13 cm deep): soybeans, cotton, alfalfa, corn, rice, wheet, sorghum, velvetleaf (Abutilon theophrasti), sesbania (Sesbania exaltata), Cassia (Cassia tora), morningglory (Ipomoea hederacea), jimsonweed (Datura stramonium), cocklebur (Xanthium pensylvanicum), crabgrass (Digitaria spp.), nutsedge (Cyperus rotundus), barnyardgrass (Echinochloa crusgalli), giant foxtail (Setaria faberii) and wild oats (Avena fatua). The following species were grown in soil in a paper cup (12 cm diameter by 13 cm deep): sunflower, sugarbeets, and mustard. All plants were sprayed approximately 14 days after planting.

Ky. bluegrass = experiment: Test B pre-emergence on Fallsington silt loam; assay type: in vivo, Kentucky bluegrass; set-up: scale not given here; conditions: 0.12 kg/ha, 28 days
Source text: (§3) Two plastic bulb pans were filled with fertilized and limed Fallsington silt loam soil. One pan was planted with corn, sorghum, Kentucky bluegrass and several grassy weeds. The other pan was planted with cotton, soybeans, purple nutsedge (Cyperus rotundus), and several broadleaf weeds. The following grassy and broadleaf weeds were planted: crabgrass (Digitaria sanguinalis), barnyardgrass (Echinochloa crusgalli), wild oats (Avena fatua), johnsongrass (Sorghum halepense), dallisgrass (Paspalum dilatatum), giant foxtail (Setaria faberii), cheatgrass (Bromus secalinus), mustard (Brassica arvensis), cocklebur (Xanthium pensylvanicum), pigweed (Amaranthus retroflexus), morningglory (Ipomoea hederacea), cassia (Cassia tora), teaweed (Sida spinosa), velvetleaf (Abutilon theophrasti), and jimsonweed (Datura stramonium). A 12.5 cm diameter plastic pot was also filed with prepared soil and planted with rice and wheat. Another 12.5 cm pot was planted with sugarbeets. The above four containers were treated pre- emergence with several test compounds within the scope of the invention.
(§4) Twenty-eight days after treatment, the plants were evaluated and visually rated for response to the chemical treatments utilizing the rating system described previously for Test A. The data are summarized in Table B.

Dallisgrass = experiment: Test B pre-emergence on Fallsington silt loam; assay type: in vivo, Paspalum dilatatum; set-up: scale not given here; conditions: 0.03 kg/ha, 28 days
Source text: as §3, §4

Wheat [1] = experiment: Test F over-the-top soil/foliage treatment; assay type: in vivo, wheet; set-up: scale not given here; conditions: soil/foliage spray, ~14 days
Description: as §1, §2

Wild Oats [2] = experiment: Test F over-the-top soil/foliage treatment; assay type: in vivo, Avena fatua; set-up: scale not given here; conditions: soil/foliage spray, ~14 days
Description: as §1, §2

Sugarbeets [3] = experiment: Test F over-the-top soil/foliage treatment; assay type: in vivo; conditions: soil/foliage spray; 0.007 kg/ha; ~14 days
Description: as §1, §2

Corn = experiment: Test F over-the-top soil/foliage treatment; assay type: in vivo; conditions: soil/foliage spray; 0.06 kg/ha; ~14 days
Description: as §1, §2

Mustard = experiment: Test F over-the-top soil/foliage treatment; assay type: in vivo; conditions: soil/foliage spray, ~14 days
Description: as §1, §2

Sunflower = experiment: Test F over-the-top soil/foliage treatment; assay type: in vivo; conditions: soil/foliage spray, ~14 days
Description: as §1, §2

Barnyardgrass = experiment: Test F over-the-top soil/foliage treatment; assay type: in vivo, Echinochloa crusgalli; set-up: scale not given here; conditions: soil/foliage spray, ~14 days
Description: as §1, §2

Crabgrass = experiment: Test F over-the-top soil/foliage treatment; assay type: in vivo, Digitaria spp.; set-up: scale not given here; conditions: soil/foliage spray, ~14 days
Description: as §1, §2

Cocklebur = experiment: Test B pre-emergence on Fallsington silt loam; assay type: in vivo, Xanthium pensylvanicum; conditions: 0.03 kg/ha, 28 days
Source text: as §3, §4

Morningglory = experiment: Test B pre-emergence on Fallsington silt loam; assay type: in vivo, Ipomoea hederacea; conditions: 0.03 kg/ha, 28 days
Source text: as §3, §4

Sugarbeets [4] = experiment: Test B pre-emergence on Fallsington silt loam; assay type: in vivo; set-up: scale not given here; conditions: 28 days
Source text: as §3, §4

Wheat [5] = experiment: Test B pre-emergence on Fallsington silt loam; assay type: in vivo; set-up: scale not given here; conditions: 28 days
Source text: as §3, §4

Cassia = experiment: Test B pre-emergence on Fallsington silt loam; assay type: in vivo, Cassia tora; conditions: 0.12 kg/ha, 28 days
Source text: as §3, §4

Sesbania = experiment: Test F over-the-top soil/foliage treatment; assay type: in vivo, Sesbania exaltata; set-up: scale not given here; conditions: soil/foliage spray, ~14 days
Description: as §1, §2

Giant Foxtail = experiment: Test F over-the-top soil/foliage treatment; assay type: in vivo, Setaria faberii; set-up: scale not given here; conditions: soil/foliage spray, ~14 days
Description: as §1, §2

Wild Oats [6] = experiment: Test B pre-emergence on Fallsington silt loam; assay type: in vivo, Avena fatua; set-up: scale not given here; conditions: 28 days
Source text: as §3, §4

Alfalfa = experiment: Test F over-the-top soil/foliage treatment; assay type: in vivo; set-up: scale not given here; conditions: soil/foliage spray, ~14 days
Description: as §1, §2

Sorghum = experiment: Test F over-the-top soil/foliage treatment; assay type: in vivo; set-up: scale not given here; conditions: soil/foliage spray, ~14 days
Description: as §1, §2

Johnsongrass = experiment: Test B pre-emergence on Fallsington silt loam; assay type: in vivo, Sorghum halepense; set-up: scale not given here; conditions: 0.12 kg/ha, 28 days
Source text: as §3, §4

## COc1cc(OC)nc(NC(=O)NS(=O)(=O)c2ccccc2OS(C)(=O)=O)n1 [Compound 1, N-[(4,6-Dimethoxypyrimidin-2-yl)aminocarbonyl]-2-hydroxybenzenesulfonamide, methanesulfonate]
Nutsedge; 0.003 kg/ha
  Nutsedge response rating: 3G
Nutsedge; 0.007 kg/ha
  Nutsedge response rating: 5G
Nutsedge; 0.015 kg/ha
  Nutsedge response rating: 10C
Nutsedge; 0.06 kg/ha
  Nutsedge response rating: 10C
Ky. bluegrass
  Ky. bluegrass response rating: 10C
Dallisgrass
  Dallisgrass response rating: 7G
Wheat [1]; 0.003 kg/ha
  Wheat response rating: 1G
Wheat [1]; 0.007 kg/ha
  Wheat response rating: 0
Wheat [1]; 0.015 kg/ha
  Wheat response rating: 0
Wheat [1]; 0.06 kg/ha
  Wheat response rating: 0
Wild Oats [2]; 0.003 kg/ha
  Wild Oats response rating: 3G
Wild Oats [2]; 0.007 kg/ha
  Wild Oats response rating: 3G
Wild Oats [2]; 0.015 kg/ha
  Wild Oats response rating: 3G
Wild Oats [2]; 0.06 kg/ha
  Wild Oats response rating: 6G
Sugarbeets [3]
  Sugarbeets response rating: 10C
Corn
  Corn response rating: 10C
Mustard; 0.003 kg/ha
  Mustard response rating: 10C
Mustard; 0.007 kg/ha
  Mustard response rating: 10C
Sunflower; 0.003 kg/ha
  Sunflower response rating: 10C
Sunflower; 0.007 kg/ha
  Sunflower response rating: 10C
Barnyardgrass; 0.015 kg/ha
  Barnyardgrass response rating: 10C
Barnyardgrass; 0.06 kg/ha
  Barnyardgrass response rating: 10C
Crabgrass; 0.003 kg/ha
  Crabgrass response rating: 0
Crabgrass; 0.007 kg/ha
  Crabgrass response rating: 5G
Crabgrass; 0.015 kg/ha
  Crabgrass response rating: 2C
Cocklebur
  Cocklebur response rating: 6G
Morningglory
  Morningglory response rating: 5G
Sugarbeets [4]; 0.03 kg/ha
  Sugarbeets response rating: 10C
Sugarbeets [4]; 0.12 kg/ha
  Sugarbeets response rating: 10C
Wheat [5]; 0.03 kg/ha
  Wheat response rating: 0
Wheat [5]; 0.12 kg/ha
  Wheat response rating: 3G
Cassia
  Cassia response rating: 10C
Sesbania; 0.003 kg/ha
  Sesbania response rating: 10C
Sesbania; 0.007 kg/ha
  Sesbania response rating: 10C
Sesbania; 0.015 kg/ha
  Sesbania response rating: 9C
Sesbania; 0.06 kg/ha
  Sesbania response rating: 9C
Giant Foxtail; 0.003 kg/ha
  Giant Foxtail response rating: 5G
Giant Foxtail; 0.007 kg/ha
  Giant Foxtail response rating: 5G
Wild Oats [6]; 0.03 kg/ha
  Wild Oats response rating: 6G
Wild Oats [6]; 0.12 kg/ha
  Wild Oats response rating: 10C
Alfalfa; 0.015 kg/ha
  Alfalfa response rating: 5C
Alfalfa; 0.06 kg/ha
  Alfalfa response rating: 9C
Sorghum; 0.015 kg/ha
  Sorghum response rating: 9C
Sorghum; 0.06 kg/ha
  Sorghum response rating: 10C
Johnsongrass
  Johnsongrass response rating: 10C
